In ChEMBL document CHEMBL4342466, “Novel, Self-Assembling Dimeric Inhibitors of Human β Tryptase” (J Med Chem, 2020):

Assays:
[1] = Inhibition of human recombinant beta-tryptase pre-incubated for 3 hrs before N-tert-butoxycarbonyl-Gln-Ala-Arg-AMC substrate addition and measured every 30 secs for 15 mins by spectrometry
[2] = Apparent permeability from apical to basolateral side in MDCK cells; format: ADME, cell-based, Canis lupus familiaris; settings: dog
[3] = Effective permeability from apical to basolateral side in PAMPA method; format: ADME; settings: read-out: Peff
[4] = Effective permeability assessed as mass retention by PAMPA method; format: ADME
[5] = Dissociation constant, pKa of the compound (NH3*) by pH metric assay; format: physicochemical
[6] = Dissociation constant, pKa of the compound (OH) by UV metric assay; format: physicochemical
[7] = Dissociation constant, pKa of the compound (OH) by pH metric assay; format: physicochemical
[8] = Stability in human liver microsomes assessed as parent compound remaining at 15 uM in presence of NADPH incubated for 60 mins; format: ADME, Microsome; settings: liver microsomes, read-out: Stability
[9] = Stability in human liver microsomes assessed as parent compound remaining at 15 uM in absence of NADPH incubated for 60 mins; format: ADME, Microsome; settings: liver microsomes, read-out: Stability
[10] = Stability in mouse liver microsomes assessed as parent compound remaining at 15 uM in absence of NADPH incubated for 60 mins; format: ADME, Microsome; settings: read-out: Stability
[11] = Stability in rat liver microsomes assessed as parent compound remaining at 15 uM in presence of NADPH incubated for 60 mins; format: ADME, Microsome; settings: read-out: Stability
[12] = Stability in rat liver microsomes assessed as parent compound remaining at 15 uM in absence of NADPH incubated for 60 mins; format: ADME, Microsome; settings: read-out: Stability
[13] = Stability in mouse liver microsomes assessed as parent compound remaining at 15 uM in presence of NADPH incubated for 60 mins; format: ADME, Microsome; settings: read-out: Stability
CYP1A2 = molecular target: T1, CYP1A2 (Homo sapiens, UniProt P05177); assay: Inhibition of CYP1A2 (unknown origin) at 10 uM relative to control; format: ADME
T1 sequence (P05177 whole entry): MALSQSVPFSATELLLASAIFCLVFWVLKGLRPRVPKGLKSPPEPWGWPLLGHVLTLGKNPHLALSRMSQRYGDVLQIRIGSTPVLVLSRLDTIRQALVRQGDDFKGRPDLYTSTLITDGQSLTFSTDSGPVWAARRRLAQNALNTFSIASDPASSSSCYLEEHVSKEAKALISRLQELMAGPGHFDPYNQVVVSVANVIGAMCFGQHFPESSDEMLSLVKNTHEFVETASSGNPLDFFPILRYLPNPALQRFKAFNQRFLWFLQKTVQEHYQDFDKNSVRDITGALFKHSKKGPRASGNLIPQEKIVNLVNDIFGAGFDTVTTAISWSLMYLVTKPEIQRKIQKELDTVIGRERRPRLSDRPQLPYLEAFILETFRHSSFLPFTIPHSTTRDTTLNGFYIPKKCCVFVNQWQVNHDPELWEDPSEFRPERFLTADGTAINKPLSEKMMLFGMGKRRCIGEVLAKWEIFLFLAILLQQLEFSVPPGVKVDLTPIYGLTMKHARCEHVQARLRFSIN

CYP2D6 = CYP2D6 (Homo sapiens, UniProt P10635); assay: Inhibition of CYP2D6 (unknown origin) at 10 uM relative to control; format: ADME
Chain of CYP2D6 (P10635 whole entry): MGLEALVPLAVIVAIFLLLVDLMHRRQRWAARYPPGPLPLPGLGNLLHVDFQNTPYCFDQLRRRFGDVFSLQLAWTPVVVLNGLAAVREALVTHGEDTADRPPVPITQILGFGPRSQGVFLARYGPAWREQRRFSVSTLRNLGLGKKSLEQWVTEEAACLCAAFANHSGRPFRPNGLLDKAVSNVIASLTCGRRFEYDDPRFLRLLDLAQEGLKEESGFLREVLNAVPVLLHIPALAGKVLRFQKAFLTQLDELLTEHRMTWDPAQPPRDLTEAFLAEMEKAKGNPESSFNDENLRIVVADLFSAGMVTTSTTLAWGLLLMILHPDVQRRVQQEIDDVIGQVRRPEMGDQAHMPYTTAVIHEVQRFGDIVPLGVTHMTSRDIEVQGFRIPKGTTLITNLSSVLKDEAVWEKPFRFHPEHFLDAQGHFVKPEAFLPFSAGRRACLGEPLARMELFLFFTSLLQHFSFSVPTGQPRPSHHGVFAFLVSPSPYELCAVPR

CYP3A4 = CYP3A4 (Homo sapiens, UniProt P08684); assay: Inhibition of CYP3A4 (unknown origin) at 10 uM relative to control; format: ADME
Chain of CYP3A4 (P08684 whole entry): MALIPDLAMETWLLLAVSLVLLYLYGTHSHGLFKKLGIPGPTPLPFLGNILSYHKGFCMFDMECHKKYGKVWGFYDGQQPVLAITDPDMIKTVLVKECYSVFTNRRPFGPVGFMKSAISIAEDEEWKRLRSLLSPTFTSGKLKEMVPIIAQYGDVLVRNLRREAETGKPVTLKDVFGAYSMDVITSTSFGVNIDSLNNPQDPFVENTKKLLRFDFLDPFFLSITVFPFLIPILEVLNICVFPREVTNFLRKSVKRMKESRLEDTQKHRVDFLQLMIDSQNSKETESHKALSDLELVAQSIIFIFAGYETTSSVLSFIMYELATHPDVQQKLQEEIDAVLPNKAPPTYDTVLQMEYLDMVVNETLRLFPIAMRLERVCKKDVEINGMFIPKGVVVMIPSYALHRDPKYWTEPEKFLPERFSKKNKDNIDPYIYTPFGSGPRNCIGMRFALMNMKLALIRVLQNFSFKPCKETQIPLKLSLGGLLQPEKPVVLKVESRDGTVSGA

CYP2C9 = CYP2C9 (Homo sapiens, UniProt P11712); assay: Inhibition of CYP2C9 (unknown origin) at 10 uM relative to control; format: ADME
Chain of CYP2C9 (P11712 whole entry): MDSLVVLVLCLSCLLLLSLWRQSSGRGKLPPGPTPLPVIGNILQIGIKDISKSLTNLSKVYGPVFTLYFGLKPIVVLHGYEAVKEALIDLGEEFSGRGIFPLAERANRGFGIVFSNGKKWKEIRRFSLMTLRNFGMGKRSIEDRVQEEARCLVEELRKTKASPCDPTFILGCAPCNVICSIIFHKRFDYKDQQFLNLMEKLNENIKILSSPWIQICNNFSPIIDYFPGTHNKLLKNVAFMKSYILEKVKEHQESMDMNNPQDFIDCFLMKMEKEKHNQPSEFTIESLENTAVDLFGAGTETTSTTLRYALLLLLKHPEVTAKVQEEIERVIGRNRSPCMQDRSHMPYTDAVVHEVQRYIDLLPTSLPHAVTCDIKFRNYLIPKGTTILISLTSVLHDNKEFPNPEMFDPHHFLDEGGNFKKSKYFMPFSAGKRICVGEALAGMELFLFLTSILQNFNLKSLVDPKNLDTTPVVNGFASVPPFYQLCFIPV

CYP2C19 = CYP2C19 (Homo sapiens, UniProt P33261); assay: Inhibition of CYP2C19 (unknown origin) at 10 uM relative to control; format: ADME
Chain of CYP2C19 (P33261 whole entry): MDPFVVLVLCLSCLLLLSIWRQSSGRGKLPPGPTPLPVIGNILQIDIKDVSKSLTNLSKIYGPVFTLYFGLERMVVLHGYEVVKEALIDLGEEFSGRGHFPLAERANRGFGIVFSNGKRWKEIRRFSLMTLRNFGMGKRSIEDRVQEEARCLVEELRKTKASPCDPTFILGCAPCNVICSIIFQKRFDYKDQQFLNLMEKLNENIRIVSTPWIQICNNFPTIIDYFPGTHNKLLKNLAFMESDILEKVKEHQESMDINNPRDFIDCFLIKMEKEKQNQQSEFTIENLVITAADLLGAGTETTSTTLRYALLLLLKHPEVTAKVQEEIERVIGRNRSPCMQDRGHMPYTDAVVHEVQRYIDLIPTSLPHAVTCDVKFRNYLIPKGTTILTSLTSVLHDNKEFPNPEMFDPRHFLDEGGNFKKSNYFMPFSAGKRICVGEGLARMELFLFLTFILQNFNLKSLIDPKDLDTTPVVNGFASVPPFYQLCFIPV

[14] = Plasma concentration in mouse xenografted with human HMC1 cells at 10 mg/kg, iv dosed at time 0 and again 24 hrs later and measured at 0 hrs after second dose by LC-MS/MS analysis; format: ADME, organism-based
[15] = Plasma concentration in mouse xenografted with human HMC1 cells at 10 mg/kg, iv dosed at time 0 and again 24 hrs later and measured at 2 hrs after second dose by LC-MS/MS analysis; format: ADME, organism-based
[16] = Plasma concentration in mouse xenografted with human HMC1 cells at 10 mg/kg, iv dosed at time 0 and again 24 hrs later and measured at 8 hrs after second dose by LC-MS/MS analysis; format: ADME, organism-based
[17] = Plasma concentration in mouse xenografted with human HMC1 cells at 10 mg/kg, iv dosed at time 0 and again 24 hrs later and measured at 24 hrs after second dose by LC-MS/MS analysis; format: ADME, organism-based
[18] = Drug concentration in tumor of mouse xenografted with human HMC1 cells at 10 mg/kg, iv dosed at time 0 and again 24 hrs later and measured at 0 hrs after second dose by LC-MS/MS analysis; format: ADME, organism-based, Neoplasm; settings: read-out: Drug uptake
[19] = Drug concentration in tumor of mouse xenografted with human HMC1 cells at 10 mg/kg, iv dosed at time 0 and again 24 hrs later and measured at 2 hrs after second dose by LC-MS/MS analysis; format: ADME, organism-based, Neoplasm; settings: read-out: Drug uptake
[20] = Drug concentration in tumor of mouse xenografted with human HMC1 cells at 10 mg/kg, iv dosed at time 0 and again 24 hrs later and measured at 8 hrs after second dose by LC-MS/MS analysis; format: ADME, organism-based, Neoplasm; settings: read-out: Drug uptake
[21] = Drug concentration in tumor of mouse xenografted with human HMC1 cells at 10 mg/kg, iv dosed at time 0 and again 24 hrs later and measured at 24 hrs after second dose by LC-MS/MS analysis; format: ADME, organism-based, Neoplasm; settings: read-out: Drug uptake
[22] = Drug concentration in tumor of mouse xenografted with human HMC1 cells at 10 mg/kg, iv dosed at time 0 and again 24 hrs later and measured at 48 hrs after second dose by LC-MS/MS analysis; format: ADME, organism-based, Neoplasm; settings: read-out: Drug uptake
Homo sapiens = organism: Homo sapiens; assay: Inhibition of human recombinant beta-tryptase assessed as remaining enzyme activity at 10 uM pre-incubated for 3 hrs before N-tert-butoxycarbonyl-Gln-Ala-Arg-AMC substrate addition and measured after 8 hrs by spectrometry relative to control
[23] = Inhibition of beta-tryptase in human HMC1 cells assessed as effect on A23187-induced degranulation; format: cell-based
[24] = Inhibition of beta-tryptase in human HMC1 cells assessed as effect on tryptase activity by measured cell lysis; format: cell-based

`NCc1cccc(C2CCN(C(=O)/C=C/c3ccc(O)c(O)c3)CC2)c1` showed an IC50 [1] of 3.84 µM, a Papp A→B [2] of 0.31 ×10⁻⁶ cm/s and a Papp [3] of 0.01 ×10⁻⁶ cm/s. The Activity [4] was 26.3%, the pKa [5] was 9.67 and the pKa [6] was 7.37. For the same molecule, the pKa [7] was 8.11, the remaining at 1 h, 15 µM [8] was 8% and the remaining at 1 h, 15 µM [9] was 11%. It also gave a remaining at 1 h, 15 µM [10] of 36%, a remaining at 1 h, 15 µM [11] of 37% and a remaining at 1 h, 15 µM [12] of 73%. For the same molecule, the remaining at 1 h, 15 µM [13] was 18%, the inhibition at 10 µM (CYP1A2) was 18% and the inhibition at 10 µM (CYP2D6) was 47%. The inhibition at 10 µM (CYP3A4) was 19%, the inhibition at 10 µM (CYP2C9) was 75% and the inhibition at 10 µM (CYP2C19) was 77%.

Work on `NCc1ccc2c(c1)C1(CCN(C(=O)c3cccc(-c4cccc(B(O)O)c4)c3)CC1)CO2.O=C(O)C(F)(F)F` yielded a concentration at 0 h [14] of 0.53 nM, a concentration at 2 h [15] of 1290 nM and a concentration at 8 h [16] of 43 nM. For the same molecule, the concentration at 24 h [17] was 0.14 nM, the concentration at 0 h [18] was 27.9 nM and the concentration at 2 h [19] was 554 nM. For the same molecule, the concentration at 8 h [20] was 107 nM, the concentration at 24 h [21] was 2.14 nM and the concentration at 48 h [22] was 0.56 nM.

Work on `NCc1ccc2c(c1)C1(CCN(C(=O)c3cccc(-c4cccc(B5Oc6cc(C(=O)N7CCC8(CC7)COc7ccc(CN)cc78)cc(Cl)c6O5)c4)c3)CC1)CO2` yielded an Activity (Homo sapiens) of 50%, an IC50 [23] of 240 nM and an IC50 [24] of 5.45 µM.
